The source of these data is patent US6512004B2, “Promoters of neural regeneration” (The Regents of the University of California, priority 1998, dated 2003).

“Also recorded” adds a separate entry of the source.

Format in all cases: cell-based
Experiment [1] relates to growth cones of the cultured Xenopus spinal neuron. The experiment is described as follows: Growth cone turning in a Sema III gradient. As to conditions: for growth cone turning response in Sema III gradient with agent in culture medium: Sema III 50 μg/ml in the pipette, 8-br-cGMP 100 μM, Sp-cGMPS 10 μM, PP-9 10 μM, SNAP 300 μM, Rp-cGMPS 10 μM, cAMPS analogues 20 μM, one-hour exposure; for conversion of the Sema III turning response in the presence of 8-br-cGMP: 8-br-cGMP 100 μM plus Rp-cAMPS or Sp-cAMPS 20 μM. As to the method: Collapsin-1/Semaphorin III/D (Sema III), a diffusible member of the semaphorin family can repel or cause collapse of growth cones in culture (6). […] We analyzed the effect of a microscopic gradient of Sema III on growth cones of the cultured Xenopus spinal neuron (8). Sema III-containing saline was applied in pulses from a micropipette positioned 100 μm from the center of the growth cone and at a 45° angle with respect to the original direction of neurite extension. […] The repulsive response was dose-dependent with a minimal response occurring at an effective concentration of about 10 ng/ml at the growth cone (8). Heat-inactivated Sema III was ineffective (FIG. 1A). […] The rate of neurite extension was unaffected by the presence of the Sema III gradient.
(§1) 8. Dissociated Xenopus spinal neurons were prepared as described (4,5). Isolated spinal neurons were used for experiments at room temperature (22°-24° C.) 14-22 hour after plating. Sema III was purified from conditioned medium of stable 293-EBNA cell lines secreting Sema III-AP as described (17). To inactivate Sema III activity, the supernatant containing Sema III-AP was heated at 85° C. for 45 minutes [J. Fan and J. A. Raper, Neuron 14, 263 (1995)]. Microscopic gradients of diffusible factors were produced as described (4,5). The average concentration of factors at the growth cone was about 10^3-fold lower than that in the pipette [A. M. Lohof, M. Quilian, Y. Dan and M-m. Poo, J. Neurosci. 12, 1253 (1992)], and a concentration gradient of 5-10% was created across a growth cone 10 μm wide, 100 μm away from the tip of the ejecting pipette. The original direction of neurite growth was defined by the last 10-μm segment of the neurite. The turning angle was defined by the angle between the original direction of neurite extension and a straight line connecting the positions of the growth cone at the onset and the end of the one hour period. Only growth cones with a net extension >5 μm over the one-hour period were scored.
(§2) 10. M. A. Schwarzschild and R. E. Zigmond, J. Neurochem. 56, 400 (1991). Pharmacological agents were added to the culture medium at least 30 minutes before the gradient was applied and were present during the experiments. The final concentrations of pharmacological agents in the medium were listed.

Experiment [2] has as its system growth cones of Xenopus spinal neurons. The experiment is described as follows: Growth cone turning in a rMAG gradient. As to conditions: for growth cone turning response in rMAG gradient with agent in medium: rMAG 150 μg/ml in the pipette, 8-br-cGMP 100 μM, Sp-cAMPS 20 μM.
Excerpt: To examine whether the responses to other repulsive factors can be converted, we studied myelin-associated glycoprotein (MAG), a component of myelin and an inhibitor of axonal regeneration (22). […] However, the repulsion by rMAG was not affected by the addition of 8-br-cGMP. […] Thus the turning response induced by rMAG can be modulated by cAMP-dependent activities. This is reminiscent of the turning responses induced by gradients of BDNF and netrin-1 (4,5), although the latter factors are normally attractive and are converted to repulsive by inhibition of cAMP-dependent activities.
as §1
10. M. A. Schwarzschild and R. E. Zigmond, J. Neurochem. 56, 400 (1991). Pharmacological agents were added to the culture medium at least 30 minutes before the gradient was applied and were present during the experiments. […]

Experiment [3] deals with rat dorsal root ganglion (DRG) axons. Description: Growth cone collapse assay with Sema III on DRG explants. As to conditions: for inhibition of the collapsing activity of Sema III: agent added an hour before the collapse assay; for effect of agent alone on growth cones: without Sema III. As to the method: 21. DRG explants derived from E14 rat embryos were cultured with 25 ng/ml NGF on plates precoated with poly-D-lysine and laminin for 20 hours before experiments as described (17). Pharmacological agents were added an hour before the collapse assay. The collapse assay was performed on sensory axons from these explants using Sema III-AP-containing medium essentially as described (17). For visualization, growth cones were stained with rhodamine-phalloidin, then washed and mounted.

For experiment [4], the system named is growth cones of Xenopus spinal neurons. The experiment is described as follows: Growth cone turning in a netrin-1 gradient. As to conditions: for turning response in netrin-1 gradient with agent in medium: netrin-1 5 μg/ml in the pipette, Rp-cGMPS 10 μM, 8-br-cGMP 100 μM, Rp-cAMPS 20 μM. On the procedure:
(§3) FIGS. 4A-4D. (A) Effects of manipulating cyclic nucleotide levels on turning induced by a rMAG gradient (150 μg/ml in the pipette) in normal medium, in medium containing 8-br-cGMP (100 μM) or Sp-cAMPS (20 μM), and by heat-inactivated rMAG in normal medium. […] (B) Effects of reducing [Ca^2+]o on turning responses induced by rMAG. […] (C) Turning responses induced by a gradient of netrin-1 (5 μg/ml in the pipette) (5), in normal medium and in medium containing Rp-cGMPS (10 μM), 8-br-cGMP (100 μM), Rp-cAMPS (20 μM), or both Rp-cAMPS (20 μM) and 8-br-cGMP (100 μM). […] (D) Turning induced by a NT-3 gradient (50 μg/ml in the pipette) in normal medium and in medium containing Rp-cAMPS (20 μM) or Rp-cGMPS (10 μM), or in medium containing 1 μM Ca^2+.
as §1, §2

The test system is the same in experiment [5]. The experiment is described as follows: Growth cone turning in a NT-3 gradient. As to conditions: NT-3 50 μg/ml in the pipette; Rp-cGMPS 10 μM, Rp-cAMPS 20 μM. On the procedure: as §3
8. Dissociated Xenopus spinal neurons were prepared as described (4,5). Isolated spinal neurons were used for experiments at room temperature (22°-24° C.) 14-22 hour after plating. Sema III was purified from conditioned medium of stable 293-EBNA cell lines secreting Sema III-AP as described (17). To inactivate Sema III activity, the supernatant containing Sema III-AP was heated at 85° C. for 45 minutes [J. Fan and J. A. Raper, Neuron 14, 263 (1995)]. Microscopic gradients of diffusible factors were produced as described (4,5). […] Only growth cones with a net extension >5 μm over the one-hour period were scored. […]

`CC(=O)N[C@H](C(=O)O)C(C)(C)SN=O` (racemic) [S-Nitroso-N-acetylpenicillamine]: the “growth cone turning response in Sema III gradient with agent in culture medium” value (from here on “growth cone turning response … in culture medium”) in experiment [1] is on record as “abolished the repulsive turning response without causing a significant attractive response”.

With `Nc1nc2c(nc(Br)n2[C@@H]2O[C@@H]3COP(=O)(O)O[C@H]3[C@H]2O)c(=O)[nH]1` [Activator 8-br-cGMP, 8-br-cGMP], in experiment [1], the “growth cone turning response … in culture medium” value is “nearly all growth cones turned toward rather than away from the pipette; also recorded: attractive response”. Besides, the “growth cone turning response in rMAG gradient with agent in medium” value in experiment [2] is on record as “not affected”. Moreover, in experiment [3], the “inhibition of the collapsing activity of Sema III” value is “inhibited the collapsing activity of Sema III in a dose-dependent manner” and the “effect of agent alone on growth cones” value is recorded as “no detectable effect”. Besides, in experiment [3] (rat DRG explants), the “concentrations needed to inhibit the collapsing activity of Sema III” value is 0.5 to 5 mM. In addition, in experiment [4] (Rp-cAMPS 20 μM and 8-br-cGMP 100 μM), the “repulsive turning in netrin-1 gradient in the presence of Rp-cAMPS” value is reported as “not affected”. The “turning response in netrin-1 gradient with agent in medium” value (from here on “turning response in netrin-1 gradient”) in experiment [4] is reported as “did not affect the attractive turning”.

For `Nc1ncnc2c1ncn2[C@@H]1O[C@@H]2CO[P@@](O)(=S)O[C@H]2[C@H]1O` [Rp-cAMPS], the “conversion of the Sema III turning response in the presence of 8-br-cGMP” value in experiment [1] is “blocked the conversion of the turning response”. In addition, the “turning response in netrin-1 gradient” value in experiment [4] is listed as “repulsive turning”. The “attractive response in a NT-3 gradient with agent in medium” value in experiment [5] was “no effect”.

As for `Nc1nc2c(ncn2[C@@H]2O[C@@H]3COP(O)(=S)O[C@H]3[C@H]2O)c(=O)[nH]1` (stereo partly drawn) [Rp-cGMPS], the “growth cone turning response … in culture medium” value in experiment [1] is recorded as “did not affect the growth cone response”. Besides, the “turning response in netrin-1 gradient” value in experiment [4] is recorded as “did not affect the attractive turning”. The “attractive response in a NT-3 gradient with agent in medium” value in experiment [5] is on record as “converted to repulsive response”.

As for `Nc1ncnc2c1ncn2[C@@H]1O[C@@H]2COP(O)(=S)O[C@H]2[C@H]1O` (stereo partly drawn) [Sp-cAMPS], in experiment [1], the “conversion of the Sema III turning response in the presence of 8-br-cGMP” value is given as “not”. The “growth cone turning response in rMAG gradient with agent in medium” value in experiment [2] is recorded as “converted to attraction”. For the same molecule, in experiment [3], the “inhibition of the collapsing activity of Sema III” value is given as “not” and the “effect of agent alone on growth cones” value was “no detectable effect”.

For the molecule `Nc1nc2c(ncn2[C@@H]2O[C@@H]3COP(O)(=S)O[C@H]3[C@H]2O)c(=O)[nH]1` (stereo partly drawn) [Sp-cGMPS], the “growth cone turning response … in culture medium” value in experiment [1] is on record as “nearly all growth cones turned toward rather than away from the pipette”.

B1: rMAG: recombinant protein consisting of the extracellular domain of MAG (protein, UniProt P07722 20-516, looked up)
extracellular domain: GHWGAWMPSSISAFEGTCVSIPCRFDFPDELRPAVVHGVWYFNSPYPKNYPPVVFKSRTQVVHESFQGRSRLLGDLGLRNCTLLLSTLSPELGGKYYFRGDLGGYNQYTFSEHSVLDIINTPNIVVPPEVVAGTEVEVSCMVPDNCPELRPELSWLGHEGLGEPTVLGRLREDEGTWVQVSLLHFVPTREANGHRLGCQAAFPNTTLQFEGYASLDVKYPPVIVEMNSSVEAIEGSHVSLLCGADSNPPPLLTWMRDGMVLREAVAESLYLDLEEVTPAEDGIYACLAENAYGQDNRTVELSVMYAPWKPTVNGTVVAVEGETVSILCSTQSNPDPILTIFKEKQILATVIYESQLQLELPAVTPEDDGEYWCVAENQYGQRATAFNLSVEFAPIILLESHCAAARDTVQCLCVVKSNPEPSVAFELPSRNVTVNETEREFVYSERSGLLLTSILTLRGQAQAPPRVICTSRNLYGTQSLELPFQGAHRLMWAKIGP
modifications: extracellular domain
notes: recombinant protein consisting of the extracellular domain of MAG
B1: the “growth cone turning induced by the rMAG gradient” value in experiment [2] (normal medium) is on record as “repelled growth cones”.

B2: Sema III: a diffusible member of the semaphorin family, purified from conditioned medium of 293-EBNA cell lines (protein, UniProt Q14563 21-771, looked up)
Semaphorin-3A: NYQNGKNNVPRLKLSYKEMLESNNVITFNGLANSSSYHTFLLDEERSRLYVGAKDHIFSFDLVNIKDFQKIVWPVSYTRRDECKWAGKDILKECANFIKVLKAYNQTHLYACGTGAFHPICTYIEIGHHPEDNIFKLENSHFENGRGKSPYDPKLLTASLLIDGELYSGTAADFMGRDFAIFRTLGHHHPIRTEQHDSRWLNDPKFISAHLISESDNPEDDKVYFFFRENAIDGEHSGKATHARIGQICKNDFGGHRSLVNKWTTFLKARLICSVPGPNGIDTHFDELQDVFLMNFKDPKNPVVYGVFTTSSNIFKGSAVCMYSMSDVRRVFLGPYAHRDGPNYQWVPYQGRVPYPRPGTCPSKTFGGFDSTKDLPDDVITFARSHPAMYNPVFPMNNRPIVIKTDVNYQFTQIVVDRVDAEDGQYDVMFIGTDVGTVLKVVSIPKETWYDLEEVLLEEMTVFREPTAISAMELSTKQQQLYIGSTAGVAQLPLHRCDIYGKACAECCLARDPYCAWDGSACSRYFPTAKRRTRRQDIRNGDPLTHCSDLHHDNHHGHSPEERIIYGVENSSTFLECSPKSQRALVYWQFQRRNEERKEEIRVDDHIIRTDQGLLLRSLQQKDSGNYLCHAVEHGFIQTLLKVTLEVIDTEHLEELLHKDDDGDGSKTKEMSNSMTPSQKVWYRDFMQLINHPNLNTMDEFCEQVWKRDRKQRRQRPGHTPGNSNKWKHLQENKKGRNRRTHEFERAPRSV
As for B2, the “rate of neurite extension” value in experiment [1] (in the presence of the Sema III gradient) is on record as “unaffected”. In addition, the “effective concentration at the growth cone for minimal repulsive response” value in experiment [1] (normal medium) is on record as “about 10 ng/ml”. In experiment [1] (normal medium, pipette 100 μm from growth cone, 45° angle), the “growth cone turning induced by the factor gradient” value is “Most growth cones grew away from the pipette”. In addition, the “collapse of growth cones” value in experiment [1] (up to 100 μg/ml of Sema III in the pipette) is on record as “No obvious collapse of growth cones”.
